Experimental data from patent US12569509B2, “Method and composition for preventing and treating viral infections” (priority 2017, dated 2026).
Values joined by “and” are separate entries in the source; they are usually repeats but may differ in a detail not shown here. Identical values can stand only once.

Columns and labels:
[1] = molecular target: T1, RecQ helicase (Escherichia coli, UniProt P15043); assay: Cell-free fluorescence molecular beacon helicase assay; format: biochemical, E. coli; parameters: Average rate of reaction / Rate (Triplicate): unit: RFU/min; conditions: for Average rate of reaction: mean of triplicate; for Rate (Triplicate): rate of reaction=(F0-F35)/35; for Fluorescence at 35 minutes, Run 2 / Fluorescence at time 0, Run 2: duplicate, listed as M; for Change in helicase activity compared to the DMSO control: any of the tested concentrations (0.06-200 μg/mL)
T1 construct: a full-length E. coli helicase, RecQ, was used
T1 sequence (P15043 whole entry): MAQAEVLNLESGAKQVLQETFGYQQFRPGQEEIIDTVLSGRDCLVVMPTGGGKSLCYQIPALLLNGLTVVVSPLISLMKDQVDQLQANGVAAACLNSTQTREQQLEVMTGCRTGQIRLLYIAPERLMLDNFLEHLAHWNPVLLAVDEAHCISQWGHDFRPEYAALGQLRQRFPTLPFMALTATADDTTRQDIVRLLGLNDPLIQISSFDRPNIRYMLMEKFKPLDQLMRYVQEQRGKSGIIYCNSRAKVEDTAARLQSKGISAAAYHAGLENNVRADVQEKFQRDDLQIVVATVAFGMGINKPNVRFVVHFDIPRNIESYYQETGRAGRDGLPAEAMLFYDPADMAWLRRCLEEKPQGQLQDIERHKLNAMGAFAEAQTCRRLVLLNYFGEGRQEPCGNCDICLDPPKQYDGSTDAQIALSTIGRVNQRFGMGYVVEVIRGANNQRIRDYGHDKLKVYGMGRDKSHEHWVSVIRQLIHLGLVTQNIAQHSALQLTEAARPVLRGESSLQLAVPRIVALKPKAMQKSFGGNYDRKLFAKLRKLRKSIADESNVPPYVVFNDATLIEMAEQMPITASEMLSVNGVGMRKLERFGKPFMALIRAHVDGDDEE

[2] = test system: human PBMC; assay: LPS stimulated cytokine secretion in human PBMC pretreated with compounds (Phase 2); format: cell-based; parameters: TNF-α concentration in supernatant / IL-1β concentration in supernatant / IL-6 concentration in supernatant / IL-2 concentration in supernatant / IFN-g concentration in supernatant: unit of the concentration uncertain; conditions: for IL-1β Mean Fold-Change (Relative to LPS alone) / IL-6 Mean Fold-Change (Relative to LPS alone) / TNF-α Mean Fold-Change (Relative to LPS alone): 1 ng/mL LPS stimulation for 8 hours, means from 3 donors; for IL-2 concentration in supernatant / TNF-α concentration in supernatant / IL-1β concentration in supernatant / IFN-g concentration in supernatant / IL-6 concentration in supernatant: 8-hour 1 ng/mL LPS stimulation; for IL-2 concentration in supernatant: LLOQ = 1.698 pg/mL; for TNF-α concentration in supernatant: LLOQ = 2.018 pg/mL; for IL-1β concentration in supernatant: LLOQ = 2.299 pg/mL; for IFN-g concentration in supernatant: LLOQ = 2.792 pg/mL; for IL-6 concentration in supernatant: LLOQ = 0.831; for Effect on LPS stimulated cytokine secretion: any conditions tested
From the text: Results are represented as fold-change relative to LPS treatment alone for each cytokine calculated by means from 3 separate donors.
RPMI medium alone, RPMI supplemented with 0.2% DMSO (to mimic treatment conditions) or LPS stimulation alone were used as controls.
Except for the two negative control conditions, all 3 donors responded to all experimental conditions tested with the secretion of TNF-α, IL-1β, and IL-6 albeit with a high degree of variability.

[3] = TA 0.2 μg/mL (plate column 5, wells A-C)
[4] = TA 2 μg/mL (plate column 7, wells A-C)
[5] = TA 6 μg/mL (plate column 8, wells A-C)
[6] = TA 200 μg/mL (plate column 11, wells A-C)
[7] = TA 200 + Buffer (plate column 12, wells A-C)

O=c1c(O)c(-c2cc(O)c(O)c(O)c2)oc2cc(O)cc(O)c12 [Myricetin]
Average rate of reaction ([1]; 0.06 μg/mL): 119.381
Rate (Triplicate) ([1]; 0.06 μg/mL): 156.0857 and 120.9143 and 81.14
Fluorescence at 35 minutes, Run 2 ([1]; 0.2 μg/mL): 3820 RFU and 2972 RFU
Fluorescence at time 0, Run 2 ([1]; 0.2 μg/mL): 5788 RFU and 4210 RFU
Average rate of reaction ([1]; 0.2 μg/mL): 54.7
Fluorescence at 35 minutes, Run 2 ([1]; 0.6 μg/mL): 4426 RFU and 3662 RFU
Fluorescence at time 0, Run 2 ([1]; 0.6 μg/mL): 9244 RFU and 9661 RFU
Average rate of reaction ([1]; 0.6 μg/mL): 39.68
Fluorescence at 35 minutes, Run 2 ([1]; 2 μg/mL): 4289 RFU and 4448 RFU
Fluorescence at time 0, Run 2 ([1]; 2 μg/mL): 8530 RFU and 9826 RFU
Average rate of reaction ([1]; 2.0 μg/mL): 98.63
Fluorescence at 35 minutes, Run 2 ([1]; 6 μg/mL): 3604 RFU and 4445 RFU
Average rate of reaction ([1]; 6.0 μg/mL): 107.0439
Fluorescence at 35 minutes, Run 2 ([1]; 20 μg/mL): 5025 RFU and 5336 RFU
Fluorescence at time 0, Run 2 ([1]; 20 μg/mL): 5022 RFU and 5466 RFU
Average rate of reaction ([1]; 20.0 μg/mL): 42.49
Fluorescence at 35 minutes, Run 2 ([1]; 60 μg/mL): 4100 RFU and 3834 RFU
Average rate of reaction ([1]; 60.0 μg/mL): 85
Fluorescence at 35 minutes, Run 2 ([1]; 200 μg/mL): 2562 RFU and 2378 RFU
Fluorescence at time 0, Run 2 ([1]; 200 μg/mL): 4555 RFU and 3893 RFU
Average rate of reaction ([1]; 200.0 μg/mL): 69.46
Rate (Triplicate) ([1]; 200.0 μg/mL): 81.98 and 52.34 and 74.0595
Fluorescence at 0:00:00, Run 1 ([1]; TA 0.06 μg/mL (plate column 4, wells A-C)): 14946 RFU and 8957 RFU and 8828 RFU
Fluorescence at 0:00:00, Run 1 [1, 3]: 10047 RFU and 9670 RFU and 6773 RFU
Fluorescence at 0:35:00, Run 1 [1, 3]: 7144 RFU and 8199 RFU and 5403 RFU
Fluorescence at 0:35:00, Run 1 ([1]; TA 0.6 μg/mL (plate column 6, wells A-C)): 7961 RFU and 4234 RFU and 5238 RFU
Fluorescence at 0:00:00, Run 1 [1, 4]: 12406 RFU and 10235 RFU and 7932 RFU
Fluorescence at 0:35:00, Run 1 [1, 4]: 8386 RFU and 5162 RFU and 6669 RFU
Fluorescence at 0:00:00, Run 1 [1, 5]: 13174 RFU and 13286 RFU and 6908 RFU
Fluorescence at 0:35:00, Run 1 [1, 5]: 9109 RFU and 7022 RFU and 6649 RFU
Fluorescence at 0:35:00, Run 1 ([1]; TA 20 μg/mL (plate column 9, wells A-C)): 7412 RFU and 10338 RFU and 6947 RFU
Fluorescence at 0:35:00, Run 1 ([1]; TA 60 μg/mL (plate column 10, wells A-C)): 8883 RFU and 7317 RFU and 6795 RFU
Fluorescence at 0:00:00, Run 1 [1, 6]: 6608 RFU and 4850 RFU and 6196 RFU
Fluorescence at 0:35:00, Run 1 [1, 6]: 5004 RFU and 3826 RFU and 4747 RFU
Fluorescence at 0:00:00, Run 1 [1, 7]: 5165 RFU and 8965 RFU and 8207 RFU
Fluorescence at 0:35:00, Run 1 [1, 7]: 3022 RFU and 4495 RFU and 5122 RFU
Change in helicase activity compared to the DMSO control [1]: no observed consistent change
Change in helicase activity compared to the DMSO control ([1]; listed as myricetin): no effect
IL-1β Mean Fold-Change (Relative to LPS alone) ([2]; 10 mM (so in the source)): 1.10
IL-6 Mean Fold-Change (Relative to LPS alone) ([2]; 10 mM (so in the source)): 0.97
TNF-α Mean Fold-Change (Relative to LPS alone) ([2]; 10 mM (so in the source)): 0.90
IL-1β Mean Fold-Change (Relative to LPS alone) ([2]; 100 mM (so in the source)): 1.09
IL-6 Mean Fold-Change (Relative to LPS alone) ([2]; 100 mM (so in the source)): 0.88
TNF-α Mean Fold-Change (Relative to LPS alone) ([2]; 100 mM (so in the source)): 0.93
IL-1β Mean Fold-Change (Relative to LPS alone) ([2]; 200 mM (so in the source)): 0.98
IL-6 Mean Fold-Change (Relative to LPS alone) ([2]; 200 mM (so in the source)): 0.75
TNF-α Mean Fold-Change (Relative to LPS alone) ([2]; 200 mM (so in the source)): 0.86
IL-2 concentration in supernatant ([2]; Donor 1, 10 (unit uncertain)): <LLOQ
TNF-α concentration in supernatant ([2]; Donor 1, 10 (unit uncertain)): 1496.9 pg/mL
IL-1β concentration in supernatant ([2]; Donor 1, 10 (unit uncertain)): 3079.47 pg/mL
IFN-g concentration in supernatant ([2]; Donor 1, 10 (unit uncertain)): <LLOQ
IL-6 concentration in supernatant ([2]; Donor 1, 10 (unit uncertain)): 884.11 pg/mL
IL-2 concentration in supernatant ([2]; Donor 1, 100 (unit uncertain)): <LLOQ
TNF-α concentration in supernatant ([2]; Donor 1, 100 (unit uncertain)): 1251.59 pg/mL
IL-1β concentration in supernatant ([2]; Donor 1, 100 (unit uncertain)): 2858.12 pg/mL
IFN-g concentration in supernatant ([2]; Donor 1, 100 (unit uncertain)): <LLOQ
IL-6 concentration in supernatant ([2]; Donor 1, 100 (unit uncertain)): 767.01 pg/mL
IL-2 concentration in supernatant ([2]; Donor 1, 200 (unit uncertain)): <LLOQ
TNF-α concentration in supernatant ([2]; Donor 1, 200 (unit uncertain)): 1811.82 pg/mL
IL-1β concentration in supernatant ([2]; Donor 1, 200 (unit uncertain)): 2923.92 pg/mL
IFN-g concentration in supernatant ([2]; Donor 1, 200 (unit uncertain)): <LLOQ
IL-6 concentration in supernatant ([2]; Donor 1, 200 (unit uncertain)): 781.22 pg/mL
IL-2 concentration in supernatant ([2]; Donor 2, 10 (unit uncertain)): <LLOQ
TNF-α concentration in supernatant ([2]; Donor 2, 10 (unit uncertain)): 1006.28 pg/mL
IL-1β concentration in supernatant ([2]; Donor 2, 10 (unit uncertain)): 2517.48 pg/mL
IFN-g concentration in supernatant ([2]; Donor 2, 10 (unit uncertain)): <LLOQ
IL-6 concentration in supernatant ([2]; Donor 2, 10 (unit uncertain)): 685.49 pg/mL
IL-2 concentration in supernatant ([2]; Donor 2, 100 (unit uncertain)): <LLOQ
TNF-α concentration in supernatant ([2]; Donor 2, 100 (unit uncertain)): 1597.26 pg/mL
IL-1β concentration in supernatant ([2]; Donor 2, 100 (unit uncertain)): 3046.49 pg/mL
IFN-g concentration in supernatant ([2]; Donor 2, 100 (unit uncertain)): <LLOQ
IL-6 concentration in supernatant ([2]; Donor 2, 100 (unit uncertain)): 833.84 pg/mL
IL-2 concentration in supernatant ([2]; Donor 2, 200 (unit uncertain)): <LLOQ
TNF-α concentration in supernatant ([2]; Donor 2, 200 (unit uncertain)): 1021.2 pg/mL
IL-1β concentration in supernatant ([2]; Donor 2, 200 (unit uncertain)): 2501.45 pg/mL
IFN-g concentration in supernatant ([2]; Donor 2, 200 (unit uncertain)): <LLOQ
IL-6 concentration in supernatant ([2]; Donor 2, 200 (unit uncertain)): 649.98 pg/mL
IL-2 concentration in supernatant ([2]; Donor 3, 10 (unit uncertain)): <LLOQ
TNF-α concentration in supernatant ([2]; Donor 3, 10 (unit uncertain)): 4121.89 pg/mL
IL-1β concentration in supernatant ([2]; Donor 3, 10 (unit uncertain)): 3880.95 pg/mL
IFN-g concentration in supernatant ([2]; Donor 3, 10 (unit uncertain)): <LLOQ
IL-6 concentration in supernatant ([2]; Donor 3, 10 (unit uncertain)): 685.49 pg/mL
IL-2 concentration in supernatant ([2]; Donor 3, 100 (unit uncertain)): <LLOQ
TNF-α concentration in supernatant ([2]; Donor 3, 100 (unit uncertain)): 3225.93 pg/mL
IL-1β concentration in supernatant ([2]; Donor 3, 100 (unit uncertain)): 3293.89 pg/mL
IFN-g concentration in supernatant ([2]; Donor 3, 100 (unit uncertain)): <LLOQ
IL-6 concentration in supernatant ([2]; Donor 3, 100 (unit uncertain)): 833.84 pg/mL
IL-2 concentration in supernatant ([2]; Donor 3, 200 (unit uncertain)): <LLOQ
TNF-α concentration in supernatant ([2]; Donor 3, 200 (unit uncertain)): 2528.98 pg/mL
IL-1β concentration in supernatant ([2]; Donor 3, 200 (unit uncertain)): 2756.81 pg/mL
IFN-g concentration in supernatant ([2]; Donor 3, 200 (unit uncertain)): <LLOQ
IL-6 concentration in supernatant ([2]; Donor 3, 200 (unit uncertain)): 649.98 pg/mL
Effect on LPS stimulated cytokine secretion [2]: did not appear to have any effect
Effect on LPS stimulated cytokine secretion ([2]; listed as myricetin): no effect
